According to EP0569777A2 (Bayer Corporation, priority 1992, dated 1993):
Entries after “also recorded” stand apart in the source; their conditions may differ.

Columns and labels:
[1] = tested on: human brain P-2 derived aprotinin binding pool Y protease (chymotryptic-like serine protease); assay: Immunoblot assay of APP degradation by the pool Y serine protease; format: biochemical; settings: pool Y 14 ug/ml, APP 35 nM
Experimental: Reactions were initiated at 37°C by enzyme addition to achieve the following initial component concentrations in a 16 ul volume: pool Y # 3-5 (14 ug/ml) after purification on a superdex 75 column, APP (35 nM), in 30 mM Mes buffer pH 6.5. Reactions were terminated by addition of 7.5 ul of 3X sample buffer. Immunoblots were developed using the rabbit antiserum to the APP C-terminal domain according to example 8. […] The following controls were also run: no inhibitor (lane 12), ethanol (lane 3), methanol (lane 5), pool Y only (lane 2), APP only at time zero (lane 13) and 4 hr (lane 14). Lanes 1 and 7 respectively show prestained Mr markers and the C-100 standard. Panel (b) 1.8 uM alpha-1-antichymotrypsin (lane 2), 156 uM TLCK (lane 3), 46 uM chymotrypsin inhibitor I (lane 4), 119 uM chymotrypsin inhibitor II (lane 5), 4 uM alpha-2-antiplasmin (lane 6), 51 uM alpha-1-antitrypsin (lane 7), 98 uM chymostatin administered in DMSO (lane 10), 153 uM methanolic TPCK (lane 12). Controls included: no inhibitor (lane 8), DMSO (lane 11), and methanol (lane 13). Pre-stained molecular weight markers and C-100 standards were applied to lanes 1 and 9 respectively. Incubation times of 4 and 2 hr were used in panels a) and b) respectively.
• i) Sub-cellular fractionation. This was performed essentially as described in Method 1, above. • ii) Solubilization. This was performed essentially as described in Method 1, above. • iii) Aprotinin-sepharose chromatography. Soluble (230 mg), P-2 (216 mg) or microsomal fraction (47 mg) described above was applied to a column of aprotinin sepharose (Sigma, catalog # 42268, 1.5 X 10 cm), previously equilibrated with 20 mM Tris HCl buffer pH 7.0. Once loaded the column was washed with equilibration buffer (100 ml), and then eluted with 60 ml of 50 mM sodium acetate buffer pH 5.0 containing 500 mM sodium chloride. The flow rate was 1.0 ml/min throughout. Eluted fractions (4 ml) were monitored at 280 nm, analysed using the Bradford protein assay, and examined for APP C-terminal processing activity as described in Example 8, using recombinant APP derived by expression in a baculo virus system. […] Active fractions from the purification of the P-2 fraction on aprotinin-sepharose were pooled, dialyzed against 50 mM Tris-HCl pH 7.5 and applied to a mono-Q column (HR 5/5), previously equilibrated with dialysis buffer. Once loaded, the column was eluted essentially as described in Method 1. above. Active fractions (2 ml), were monitored for A 280 nm, total protein (Bradford assay), and for their capacity for baculo virus derived APP C-terminal processing. […] Pools X, Y, and Z were each concentrated to either 2 ml (pool X and Y) or 3.6 ml (pool z) and separately applied to a Superdex 75 column (Pharmacia, Piscataway NJ.) previously equilibrated with 50 mM Tris-HCl pH 7.5, containing 150 mM sodium chloride. Once loaded, the column was eluted with equilibration buffer. Chromatography was performed at a flow rate of 1.0 ml/min throughout. Fractions (1 ml) were monitored for A 280 nm, total protein (Bradford assay) and for C-terminal processing of baculo expressed APP. The gel filtration was calibrated by chromatography of each of the following standard proteins: Thyroglobulin (670 kDa), bovine gamma globulin (158 kDa), ovalbumin (44 kDa), myoglobin (17.5 kDa) and vitamin B 12 (1.35 kDa).

[2] = tested on: C286.8A; assay: Competitive EIA, peptide epitope mapping of monoclonal antibody C286.8A; format: binding, Murine; settings: Figure 4; plates coated with 50 ng of synthetic APP 695 (597-638); C286.8A (80 ng of IgG) preincubated 60 min at room temperature with competitor peptide
Experimental: Following incubation for 60 min at room temperature, plates were washed, and the amount of bound antibody determined by development with horseradish peroxidase-coupled goat-anti mouse polyclonal antibody according to standard procedures (Wunderlich et al., 1992, J. of Immunol. Methods 147:1). Percent competition (% C) of antibody binding to the plate was calculated from the absorbance at 450 nm data using the following equation: % C = 1.0 -(O.D. (+ competitor) - O.D. blank)/(O.D. (- competitor) - O.D. blank)X 100 [formula]

[3] = tested on: P-2 peak B enzyme; assay: P-2 peak B enzyme (7.5 ug/ml), sodium chloride (75 mM), 135 mM in each of tris, Mes and acetate buffer pH 5.0; settings: human, 37 C
[4] = tested on: cathepsin D (human liver, Cal Biochem); assay: Cathepsin D (2.8 ug/ml) in cocktail buffer 130 mM in each of acetate, Mes and Tris pH 5.0; settings: 37 C, up to 24hr
[5] = tested on: cathepsin D; assay: Cathepsin D (2.5 ug/ml), sodium chloride (75 mM), 135 mM in each of tris, Mes and acetate buffer pH 5.0; settings: human, 37 C
[6] = tested on: P-2 enzyme (peak B); assay: P-2 enzyme (peak B) further purified on Superose 6HR (17.5 ug/ml) in acetate, Mes and Tris pH 5.0; settings: human, 37 C, up to 24hr
[7] = tested on: human AD brain fraction P2 VII APP degrading activity; assay: Immunoblot assay of APP 695 degradation by Mono-Q pool P2 VII; format: biochemical; settings: trial A, PMSF 0.8mM, pH 6.5, 24 hrs, 37°C
Experimental: ii) Solubilization. The membranous control or AD subfractions (P-2 or M) were solubilized by adjusting to the following conditions: 2% (v/v) Triton X-100 containing 50 mM Tris HCl buffer, pH 7.5. After stirring at 4°C for 3.5 hrs, the suspensions were centrifuged at 105,000 g x 60 min in a Beckman 70 Ti rotor. The following final protein concentrations were used in solubilization, for P-2 (3.9 to 4.0 mg/ml); and for M (1.4 to 1.6 mg/ml). Solubilized supernatants were stored at -70°C for later use. The soluble fraction was not treated with detergent but rather was adjusted to 50 mM in Tris HCl, pH 7.5, by the addition of stock 1M buffer. iii) Ion-exchange chromatography. Chromatography was performed using a Gilson gradient liquid chromatograph (model 305 and 306 pumps) equipped with a 50 ml Rheodyne stainless steel loop injector model 7125, and connected to a Mono Q HR 10/10 column (Pharmacia, Piscataway, NJ). Absorbance of column effluent was monitored at 280 nm using a Pharmacia UV-M detector and a Kippen-zonen chart recorder. […] In the initial studies, eluted fractions were monitored for A280 nm, total protein (Bradford assay), and peptidase activity (as decsribed in Examples 2 and 3). […] Fractions were monitored for A 280 nm, total protein (Bradford assay), peptidase activity, and activity for C-terminal processing of recombinant APP. […]

[8] = Mono-Q ion-exchange fractions of P-2, S and M subfractions of control and AD human cortex; settings: 37°C, up to 24 hrs

CC(C)CC(NC(=O)C1OC1C(=O)O)C(=O)NCCCCN=C(N)N (stereo not shown) [E-64]
Inhibitor sensitivity of the pool Y protease (APP degradation) ([1]; 350 uM E-64, Mes pH 6.5, 4 hr, Figure 18a): unaffected

Cc1ccc(S(=O)(=O)N[C@@H](CCCCN)C(=O)CCl)cc1 [TLCK]
Inhibitor sensitivity of the pool Y protease (APP degradation) ([1]; 156 uM TLCK, Mes pH 6.5, 2 hr, Figure 18b): did not inhibit at all

597-638: Synthetic peptide containing amino acids 597-638 of human APP695; amino acids 1-42 of the beta-amyloid sequence
ability to block binding of C286.8A to APP 597-638 [2]: able to inhibit C286.8A binding in a dose-dependent fashion

APP 645-695: Synthetic peptide, amino acids 645-695 of human APP695, C-terminal domain, devoid of any beta-amyloid sequence (AADRGLTTRPGSGLTNIKTEEISEVKMDAEFRHDSGYEVHHQKLVFFAEDV; isoform APP695; UniProt P05067 645-695, looked up, fragment)
ability to block binding of C286.8A to APP 597-638 [2]: did not inhibit binding

CC(C)C[C@H](NC(=O)[C@@H](NC(=O)N[C@@H](Cc1ccccc1)C(=O)O)[C@@H]1CCN=C(N)N1)C(=O)N[C@H](C=O)Cc1ccccc1 [chymostatin]
Inhibitor sensitivity of the pool Y protease (APP degradation) ([1]; 98 uM chymostatin administered in DMSO, Mes pH 6.5, 2 hr, Figure 18b): Weak inhibition

N=C(N)c1ccccc1 [benzamidine]
Inhibitor sensitivity of the pool Y protease (APP degradation) ([1]; 5 mM benzamidine, Mes pH 6.5, 4 hr, Figure 18a): without effect

N-Dansyl-Ile-Ser-Glu-Val-Lys-Met-Asp-Ala-Glu-Phe-Arg-NH2
cleaved bond [3]: E-V and M-D | cleaved bond [4]: Glu-Val, major; also recorded: Met-Asp, minor | cleaved bond [5]: E-V and M-D | cleaved bond [6]: Met-Asp, minor; also recorded: Glu-Val, major

APP 597-612: Synthetic peptide containing amino acids 597-612 of human APP695; amino acids 1-16 of the beta-amyloid sequence (LTETKTTVELLPVNGE; isoform APP695; UniProt P05067 597-612, looked up, fragment)
ability to block binding of C286.8A to APP 597-638 [2]: able to inhibit C286.8A binding in a dose-dependent fashion

597-624: Synthetic peptide containing amino acids 597-624 of human APP695; amino acids 1-28 of the beta-amyloid sequence (LTETKTTVELLPVNGEFSLDDLQPWHSF; isoform APP695; UniProt P05067 597-624, looked up, fragment)
ability to block binding of C286.8A to APP 597-638 [2]: able to inhibit C286.8A binding in a dose-dependent fashion

Cc1ccc(S(=O)(=O)N[C@@H](Cc2ccccc2)C(=O)CCl)cc1 [TPCK]
Inhibitor sensitivity of the pool Y protease (APP degradation) ([1]; 153 uM methanolic TPCK, Mes pH 6.5, 2 hr, Figure 18b): strongly inhibited

O=S(=O)(F)Cc1ccccc1 [PMSF]
Inhibitor sensitivity of the pool Y protease (APP degradation) ([1]; 860 uM PMSF in methanol, Mes pH 6.5, 4 hr, Figure 18a): inhibited | Inhibitors (pH 6.5): compounds causing complete inhibition are listed ([7]; 11.5 kDa fragment): PMSF | Inhibitors (pH 6.5): compounds causing complete inhibition are listed ([7]; >11.5 kDa fragment): PMSF

APP 608-624: Synthetic peptide, amino acids 608-624 of human APP695; beta-amyloid peptide sequence 12-28 (PVNGEFSLDDLQPWHSF; isoform APP695; UniProt P05067 608-624, looked up, fragment)
ability to block binding of C286.8A to APP 597-638 [2]: did not inhibit binding

N-dansyl-Ile-Ser-Glu-Val-Lys-Met-Asp-Ala-Glu-Phe-Arg-His-Asp-Asp-Asp-Asp
cleaved bond [8]: V-K, major and K-M and M-D and S-E and E-V

APP 621-631: Synthetic peptide, amino acids 621-631 of human APP695; beta-amyloid peptide sequence 25-35 (WHSFGADSVPA; isoform APP695; UniProt P05067 621-631, looked up, fragment)
ability to block binding of C286.8A to APP 597-638 [2]: did not inhibit binding
